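Values below derive from 48-hour exposures of cells grown in 96-well plates, with endpoints linearly interpolated between the two concentrations bracketing the appropriate inhibition level. Abbreviation: GI50, concentration required for 50% inhibition of growth. At the TGI there is no net growth.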 Where a SMILES comes first, the peptide text is derived from it. The star is where a group is joined. Cbz = O=C(OCc1ccccc1)*; OBn = c1ccc(CO*)cc1
Tests used:
Assay in all cases: growth of human tumour cells (NCI), 48 h
HCT-116 colon = test system: HCT-116 colon
RXF 393 renal = test system: RXF 393 renal
SF-268 CNS = test system: SF-268 CNS
A549 NSCLC = test system: A549 NSCLC
MDA-MB-231 breast = test system: MDA-MB-231 breast
TK-10 renal = test system: TK-10 renal
COLO 205 colon = test system: COLO 205 colon
NCI/ADR-RES ovarian = test system: NCI/ADR-RES ovarian
MDA-MB-435 = test system: MDA-MB-435
OVCAR-3 ovarian = test system: OVCAR-3 ovarian

| Structure (SMILES) | TGI (HCT-116 colon) [µM] | TGI (RXF 393 renal) [µM] | TGI (SF-268 CNS) [µM] | TGI (A549 NSCLC) [µM] | TGI (MDA-MB-231 breast) [µM] | TGI (TK-10 renal) [µM] | TGI (COLO 205 colon) [µM] | TGI (NCI/ADR-RES ovarian) [µM] | GI50 (MDA-MB-231 breast) [µM] | TGI (MDA-MB-435) [µM] | TGI (OVCAR-3 ovarian) [µM] | GI50 (HCT-116 colon) [µM] | GI50 (RXF 393 renal) [µM] | GI50 (SF-268 CNS) [µM] | GI50 (A549 NSCLC) [µM] | GI50 (OVCAR-3 ovarian) [µM] | GI50 (COLO 205 colon) [µM] | GI50 (NCI/ADR-RES ovarian) [µM] |
| --- | --- | --- | --- | --- | --- | --- | --- | --- | --- | --- | --- | --- | --- | --- | --- | --- | --- | --- |
| Cc1cn(CC2=NCC(C)(C)N2)c(=O)[nH]c1=O | > 100 | > 100 | > 100 | > 100 | > 100 | > 100 | > 100 | > 100 | – | – | – | – | – | – | – | – | – | – |
| COC(=O)/C=C/c1cc(O)c2c(c1)[C@H](C(=O)OC)[C@@H](c1ccc(O)c(O)c1)O2 | > 72 | – | > 87 | > 100 | > 100 | > 100 | 61.6 | – | 0.0497 | – | – | – | – | – | – | – | – | – |
| Fc1ccc(N=NN2CCCC2)cc1 | > 100 | > 100 | > 100 | > 100 | > 100 | > 100 | > 100 | – | – | > 100 | > 100 | – | – | – | – | – | – | – |
| CCCCOP1(=O)C=C(C)C(=C(Cl)Cl)C(C)=C1 (configuration not stated) | 6.29 | 24.4 | 27.3 | > 41.5 | – | 44.1 | 8.97 | – | – | – | 39.1 | – | – | – | – | – | – | – |
| CC(=O)O[C@]12CCCC1C1(O)C(O)CCCC12 (some centres not stated) | > 100 | > 100 | > 100 | > 100 | – | > 100 | > 100 | – | – | – | – | – | – | – | – | – | – | – |
| CN(C)CCSC(=Nc1ccccc1)N1CCCCC1 | 33.8 | 34.7 | 38.8 | > 100 | – | 33.1 | 28.8 | – | – | – | 29.8 | – | – | – | – | – | – | – |
| O=[Se](=O)c1ccccc1.O=[Se](=O)c1ccccc1.[Cu] | 33 | 29.2 | 33.1 | 52.2 | – | – | 35.4 | 30 | – | – | 32.7 | 17.4 | 15.3 | 17.8 | 26 | 13.7 | 18.5 | 10.5 |
| Cc1cccc(NC(=O)C(=O)C(C(=O)c2ccccc2F)C2OC(=O)c3ccccc32)c1Cl (configuration not stated) | 45.3 | – | 80.9 | > 100 | – | > 100 | 38.1 | – | – | – | – | – | – | – | – | – | – | – |
| CCOC(=O)C(=Cc1ccc(C(=O)OC)cc1)C(=O)OCC | 12.5 | – | 6.51 | 12.4 | – | 7.34 | 3.59 | – | – | – | 9.57 | – | – | – | – | – | – | – |
| Cc1cccc(C2=NC(C)(C)C(C)(C)N=C2c2cccc(C)n2)n1 | > 100 | > 100 | > 100 | > 100 | – | > 100 | > 100 | – | – | – | > 100 | – | – | – | – | – | – | – |
| [N-]=[N+]=NCc1cccc(Nc2cc(=O)[nH]c(=O)[nH]2)c1 | > 100 | > 100 | > 100 | > 100 | – | > 100 | > 100 | > 100 | – | > 100 | > 100 | – | – | – | – | – | – | – |
| N#Cc1c(N2CCCC2)ncn(Cc2ccccc2)c1=O | > 100 | > 100 | > 100 | > 100 | – | > 100 | > 100 | > 100 | – | > 100 | > 100 | – | – | – | – | – | – | – |
| [N-]=[N+]=CC(=O)OCC1SCCCS1 | > 100 | > 100 | > 100 | – | > 100 | > 100 | > 100 | – | – | > 100 | > 100 | – | – | – | – | – | – | – |
| C/C(=N\NC(N)=S)C(CN(CC(C)C)CC(C)C)C(=O)Nc1ccc(C)cc1C (configuration not stated) | > 100 | > 100 | > 100 | > 100 | – | > 100 | > 100 | – | – | – | > 100 | – | – | – | – | – | – | – |
| COc1cccc(Cc2c3cc(OC)ccc3cc[n+]2C)c1 | – | – | > 100 | > 100 | – | > 100 | – | – | – | – | > 100 | – | – | – | – | – | – | – |
| c1ccc2c(c1)nc(NC1CCCC1)c1[nH]c(C3CCCC3)nc12 | 17.6 | 30.9 | 47 | 58.8 | – | > 93.3 | 36.5 | – | – | – | 27.9 | – | – | – | – | – | – | – |
| COc1ccc(-c2c(N)n(-c3cccc(C(=O)O)c3)c(=O)c3cc([N+](=O)[O-])ccc23)cc1 | > 100 | > 100 | > 100 | > 100 | – | > 100 | – | > 100 | – | > 100 | > 100 | – | – | – | – | – | – | – |
| COC(=O)C(Cc1ccc(O)cc1)NC(=O)C(CC(=O)OCc1ccccc1)NC(=O)OCc1ccccc1 (configuration not stated) (Cbz-Asp(OBn)-Tyr-OMe; configuration not given here) | 35.1 | 29.5 | – | 37 | 37.5 | 33.5 | 39.4 | – | – | – | – | – | – | – | – | – | – | – |
| c1ccc2c(c1)CCc1cc3cc4c(nc3nc1-2)-c1ccccc1CC4 | > 100 | > 100 | > 100 | > 100 | – | > 100 | > 100 | – | – | – | > 100 | – | – | – | – | – | – | – |
| NCCNc1cccc2ccccc12 | > 100 | > 100 | > 100 | > 100 | – | > 100 | > 100 | – | – | – | > 100 | – | – | – | – | – | – | – |
| Cc1ccc(N2CCc3c(C)c(C#N)c4nc5ccccc5n4c32)cc1 | > 100 | > 100 | > 100 | > 100 | – | > 100 | > 100 | > 100 | – | > 100 | > 100 | – | – | – | – | – | – | – |
